# Results as given in EP2949653A1, “ISOXAZOLE DERIVATIVES AS LEUKOTRIENE BIOSYNTHESIS INHIBITORS” (Banoglu, Erden, priority 2014, dated 2015).
# Legend:
# [1] = system: zymosan-induced peritonitis; test: Zymosan-induced peritonitis in mice; assay type: in vivo; conditions: i.p., male mice, 30 min before zymosan; LTC4 levels in peritoneal exudate (Figure 9)
# Experimental: Cell based and cell-free assays carried out in biological studies, immunofluorescence microscopy analysis and zymosan-induced peritonitis in mice are performed as described hereinabove (Pegola, C. and et al., British J. Pharmacology, 2014, D01:10.1111/bph.12625). In the cell based assays (intact neutrophils or monocytes), 5-LO mediated product formation is started, after pre-incubation with test compounds (or control DMSO) for 15 min. at 37 °C, with addition of Ca-ionophore A23187 (2.5 µM) to the fresh 5 x 10^6 neutrophils or monocytes suspended in 1 ml of PGC buffer (phosphate buffered saline (PBS) solution containing 1 mg ml^-1 glucose and 1mM CaCl2, pH 7.4). After the incubation for 10 min. at 37 °C, the reaction is ended with addition of 1 ml of methanol, and 30 µL 1 N HCl, 200 ng prostaglandin B1 and 500 µL PBS are added to the mixture. […] Resulting 5-LO mediated products are extracted and analysed by the known method of high pressure liquid chromatography (HPLC) (Pergola, C. Proc Natl. Acad. Sci. U.S.A. 2008, 105, 19881). 5-LO mediated product formation (LTB4 and all trans isomers, and 5 (S)-hydro(pero)xy-6-trans-8, 11, 14-cis-eicosatetraenoic acid, 5-H(p)ETE) is expressed as ng per 10^6 cell. Cysteinyl-LTs have not been analyzed because that the amount of C4, D4 and E4 and LTB4 oxidation products are below the detection limit. […]
# [2] = biological target: T1, 12-LO (Homo sapiens, UniProt P18054); test: 12-LO inhibition in A23187-stimulated neutrophils; assay type: cell-based; conditions: up to 10 µM in A23187-stimulated neutrophils
# T1 construct: 12-LO or 15-LO, up to 10 µM in A23187-stimulated neutrophils; endogenous in cells; host or cells: A23187-stimulated neutrophils
# T1 sequence (P18054 1-663): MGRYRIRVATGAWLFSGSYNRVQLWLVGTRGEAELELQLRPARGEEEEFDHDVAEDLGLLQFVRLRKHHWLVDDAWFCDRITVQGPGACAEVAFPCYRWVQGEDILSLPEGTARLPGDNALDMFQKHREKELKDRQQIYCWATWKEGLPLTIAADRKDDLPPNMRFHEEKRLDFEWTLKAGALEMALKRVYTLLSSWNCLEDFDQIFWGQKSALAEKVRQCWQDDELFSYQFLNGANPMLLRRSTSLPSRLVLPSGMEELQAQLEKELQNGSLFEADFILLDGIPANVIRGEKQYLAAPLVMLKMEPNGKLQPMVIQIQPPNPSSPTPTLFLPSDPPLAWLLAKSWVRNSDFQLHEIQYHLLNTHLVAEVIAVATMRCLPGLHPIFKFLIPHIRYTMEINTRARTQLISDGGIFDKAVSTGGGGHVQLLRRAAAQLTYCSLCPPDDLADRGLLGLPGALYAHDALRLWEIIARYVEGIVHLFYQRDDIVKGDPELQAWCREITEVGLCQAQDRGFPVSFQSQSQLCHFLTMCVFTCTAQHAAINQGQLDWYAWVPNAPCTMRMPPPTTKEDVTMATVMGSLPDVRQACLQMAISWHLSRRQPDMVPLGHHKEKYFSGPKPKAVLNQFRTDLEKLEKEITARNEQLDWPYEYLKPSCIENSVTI
# [3] = biological target: T2, 5-LO (Homo sapiens, UniProt P09917); test: 5-LO mediated product synthesis in HEK293 cells transfected with only 5-LO; assay type: cell-based; conditions: 2.5 µM A23187 plus 3 µM AA (Figure 7)
# T2 sequence (P09917 1-674): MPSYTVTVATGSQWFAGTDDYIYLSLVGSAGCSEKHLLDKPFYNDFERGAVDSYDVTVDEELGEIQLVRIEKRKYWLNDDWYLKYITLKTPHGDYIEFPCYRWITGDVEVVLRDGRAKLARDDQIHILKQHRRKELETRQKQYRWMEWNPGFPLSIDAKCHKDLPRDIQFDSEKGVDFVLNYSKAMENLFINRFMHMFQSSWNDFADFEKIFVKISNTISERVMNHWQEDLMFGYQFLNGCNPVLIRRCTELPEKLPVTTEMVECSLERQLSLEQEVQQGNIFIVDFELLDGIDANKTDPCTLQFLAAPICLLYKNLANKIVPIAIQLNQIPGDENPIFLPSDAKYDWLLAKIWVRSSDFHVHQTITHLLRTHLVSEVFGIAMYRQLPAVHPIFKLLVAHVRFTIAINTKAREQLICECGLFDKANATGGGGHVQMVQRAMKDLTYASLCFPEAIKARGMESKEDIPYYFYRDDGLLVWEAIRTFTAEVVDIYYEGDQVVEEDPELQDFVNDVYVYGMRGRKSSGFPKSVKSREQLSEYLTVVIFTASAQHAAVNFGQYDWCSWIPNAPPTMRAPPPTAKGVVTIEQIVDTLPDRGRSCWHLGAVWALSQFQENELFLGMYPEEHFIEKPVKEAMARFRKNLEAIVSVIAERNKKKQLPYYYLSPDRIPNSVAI
# Experimental: Compound 9hj inhibited 5-LO mediated product synthesis in HEK293 cells transfected with only 5-LO, with IC50 of 900 nM. […] After preincubation of cells with 9hj for 15 min at 37°C, cells were stimulated with 2.5 µM A23187 plus 3 µM AA for 10 min at 37°C. Data are expressed as percentage of vehicle control (0.1% DMSO). 100% controls correspond to 157.48 ng mL^-1 for 5-LO transfected cells and 155.15 ng mL^-1 for 5-LO plus FLAP transfected cells.
smiles,measurement,setting,value
"O=C(O)c1noc(-c2ccc(OCc3ccc4ccccc4n3)cc2)c1-c1ccc(Cl)cc1 [Compound 9hj, 4-(4-Chlorophenyl)-5-(4-(quinolin-2-ylmethoxy)phenyl)isoxazole-3-carboxylic acid]",ID50 zymosan-induced peritonitis,[1],7 mg/kg
same,inhibition of 12-LO,[2],did not inhibit
same,IC50,[3],900 nM
